Results taken from PMC6327987, “Synthesis and biological evaluation of novel N^9-heterobivalent β-carbolines as angiogenesis inhibitors” (Journal of Enzyme Inhibition and Medicinal Chemistry, 2019).
Where two headings read alike, the source gives them in different places.

Assays:
BGC-823 = experiment: MTT cytotoxicity, gastric carcinoma cells; format: cell-based; settings: MTT assay, gastric carcinoma BGC-823, mean ± SD of at least three determinations
Procedure: (§1) Target compounds were assayed by the MTT method for cytotoxic activity, as described previously. The panel of cell lines included gastric carcinoma (BGC-823), liver carcinoma (HepG2), breast carcinoma (MCF-7), colon carcinoma (HT-29), esophageal carcinoma (Eca-109), and Lewis lung carcinoma (LLC). Growth inhibition rates were calculated with the following equitation: Inhibition ratio (%)= ODcompd−ODblank/ODDMSO−ODblank×100% . Half maximal inhibitory concentration (IC50) of each compound was calculated using software Graph-Pad Prism (version 6.0).
(§2) All the 24 novel synthesized N^9-heterobivalent β-carbolines (5a-x) were screened for their in vitro cytotoxic activities against six different cancer cell lines, namely BGC-823 (gastric carcinoma), HepG2 (liver carcinoma), MCF-7 (breast carcinoma), HT-29 (colon carcinoma), Eca-109 (esophageal carcinoma) and LLC (Lewis lung carcinoma). The IC50 values were the average of at least three independent experiments.

HepG2 = experiment: MTT cytotoxicity, liver carcinoma cells; format: cell-based; settings: MTT assay, liver carcinoma HepG2, mean ± SD of at least three determinations
Procedure: as §1, §2

MCF-7 = experiment: MTT cytotoxicity, breast carcinoma cells; format: cell-based; settings: MTT assay, breast carcinoma MCF-7, mean ± SD of at least three determinations
Procedure: as §1, §2

HT-29 = experiment: MTT cytotoxicity, colon carcinoma cells; format: cell-based; settings: MTT assay, colon carcinoma HT-29, mean ± SD of at least three determinations
Procedure: as §1, §2

Eca-109 = experiment: MTT cytotoxicity, esophageal carcinoma cells; format: cell-based; settings: esophageal carcinoma Eca-109, mean ± SD of at least three determinations
Procedure: as §1, §2

LLC = experiment: MTT cytotoxicity, Lewis lung carcinoma cells; format: cell-based; settings: MTT assay, mean ± SD of at least three determinations
Procedure: as §1, §2

[1] = Homo sapiens, ECa-109, MTT assay

| Compound | IC50 (BGC-823; Homo sapiens) | IC50 (HepG2; Homo sapiens) | IC50 (MCF-7; Homo sapiens, MCF7) | IC50 (HT-29; Homo sapiens) | IC50 (Eca-109; [1]) | IC50 (LLC; Lewis lung carcinoma) | melting point | IC50 (BGC-823) | IC50 (HepG2) | IC50 (MCF-7; read-out: IC50 (μM) ±SD MCF7) | IC50 (HT-29) | IC50 (Eca-109; MTT assay) | IC50 (LLC) |
| --- | --- | --- | --- | --- | --- | --- | --- | --- | --- | --- | --- | --- | --- |
| COc1cc(-c2nccc3c4ccccc4n(CCCCn4c5ccccc5c5ccnc(-c6cccs6)c54)c23)cc(OC)c1OC [Compound 5q, 1–(3,4,5-trimethoxyphenyl)-9–(4-(1–(2-thienyl)-β-carboline-9-yl)butyl)-β-carboline] | > 100 µM | > 100 µM | > 100 µM | > 100 µM | > 100 µM | > 100 µM | 226.5 to 227.8 °C |  |  |  |  |  |  |
| N.N.[Cl][Pt][Cl] [Cisplatin, reference compound] |  |  |  |  |  |  |  | 11.6 ± 0.7 µM | 14.8 ± 0.4 µM | 12.4 ± 0.7 µM | 26.8 ± 1.4 µM | 8.9 ± 0.6 µM | 7.6 ± 0.4 µM |
| Cc1nccc2c3ccccc3n(CCCCCCn3c4ccccc4c4ccnc(-c5cccs5)c43)c12 [Compound 5h, 1–(2-thienyl)-9–(6-(1-methyl-β-carboline-9-yl)hexyl)-β-carboline] | > 100 µM | > 100 µM | 75.9 ± 9.4 µM | 47.8 ± 6.5 µM | 30.2 ± 3.4 µM | 30.2 ± 1.5 µM | 238.5 to 239.6 °C |  |  |  |  |  |  |
| COc1ccc(-c2nccc3c4ccccc4n(CCCCn4c5ccccc5c5ccnc(-c6cccnc6)c54)c23)cc1 [Compound 5k, 1–(4-methoxyphenyl)-9–(4-(1–(3-pyridyl)-β-carboline-9-yl)butyl)-β-carboline] | > 100 µM | > 100 µM | > 100 µM | > 100 µM | > 100 µM | > 100 µM | 241.2 to 242.4 °C |  |  |  |  |  |  |
| Cc1nccc2c3ccccc3n(CCCCCn3c4ccccc4c4ccnc(-c5ccccc5Cl)c43)c12 [Compound 5j, 1–(2-chlorophenyl)-9–(5-(1-methyl-β-carboline-9-yl)pentyl)-β-carboline] | > 100 µM | > 100 µM | 46.8 ± 3.7 µM | 24.1 ± 2.2 µM | < 20 µM | < 20 µM | 169.1 to 171.2 °C |  |  |  |  | 18.6 ± 2.1 µM | 16.6 ± 3.1 µM |
| c1csc(-c2nccc3c4ccccc4n(CCCCn4c5ccccc5c5ccncc54)c23)c1 [Compound 5e, 1–(2-thienyl)-9–(4-(β-carboline-9-yl)butyl)-β-carboline] | > 100 µM | > 100 µM | > 100 µM | 18.1 ± 3.6 µM | > 100 µM | 32.3 ± 4.5 µM | 141.6 to 143.1 °C |  |  |  |  |  |  |
| COc1cc(-c2nccc3c4ccccc4n(CCCCn4c5ccccc5c5ccnc(-c6cccnc6)c54)c23)cc(OC)c1OC [Compound 5m, 1–(3,4,5-trimethoxyphenyl)-9–(4-(1–(3-pyridyl)-β-carboline-9-yl)butyl)-β-carboline] | > 100 µM | 85.1 ± 11.6 µM | > 100 µM | > 100 µM | 70.9 ± 8.4 µM | > 100 µM | 231 to 232.3 °C |  |  |  |  |  |  |
| COc1ccc(-c2nccc3c4ccccc4n(CCCCn4c5ccccc5c5ccnc(-c6cccnc6)c54)c23)cc1OC [Compound 5l, 1–(3,4-dimethoxyphenyl)-9–(4-(1–(3-pyridyl)-β-carboline-9-yl)butyl)-β-carboline] | > 100 µM | 79.5 ± 12.3 µM | > 100 µM | 91.1 ± 10.6 µM | 93.2 ± 7.1 µM | 46.8 ± 6.4 µM | 239.8 to 240.5 °C |  |  |  |  |  |  |
| Clc1ccccc1-c1nccc2c3ccccc3n(CCCCn3c4ccccc4c4ccnc(-c5cccs5)c43)c12 [Compound 5r, 1–(2-chlorophenyl)-9–(4-(1–(2-thienyl)-β-carboline-9-yl)butyl)-β-carboline] | > 100 µM | > 100 µM | 60.7 ± 4.8 µM | 96.2 ± 5.1 µM | 96.7 ± 11.9 µM | > 100 µM | 225.4 to 227.2 °C |  |  |  |  |  |  |
| Cc1nccc2c3ccccc3n(CCCCn3c4ccccc4c4ccnc(-c5cccs5)c43)c12 [Compound 5f, 1–(2-thienyl)-9–(4-(1-methyl-β-carboline-9-yl)butyl)-β-carboline] | 38.8 ± 2.9 µM | > 100 µM | 46.6 ± 4.8 µM | 56.1 ± 4.2 µM | 64.1 ± 7.6 µM |  | 214.8 to 216 °C |  |  |  |  |  |  |
| COc1ccc(-c2nccc3c4ccccc4n(CCCCn4c5ccccc5c5ccnc(-c6cccs6)c54)c23)cc1 [Compound 5o, 1–(4-methoxyphenyl)-9–(4-(1–(2-thienyl)-β-carboline-9-yl)butyl)-β-carboline] | > 100 µM | > 100 µM | > 100 µM | > 100 µM | > 100 µM | 96.8 ± 9.8 µM | 232.5 to 233.3 °C |  |  |  |  |  |  |
| COc1ccc2c3ccnc(C)c3n(CCCCn3c4ccccc4c4ccnc(-c5cccnc5)c43)c2c1 [Compound 5u, 7-methoxy-1-methyl-9–(4-(1–(3-pyridyl)-β-carboline-9-yl)butyl)-β-carboline] | 39.1 ± 2.4 µM | 26.8 ± 2.8 µM | 23.9 ± 0.7 µM | 15.1 ± 3.1 µM | 25.2 ± 5.5 µM | 12.2 ± 2.3 µM | 163.8 to 164.5 °C |  |  |  |  |  |  |
| Cc1nccc2c3ccccc3n(CCCCCCn3c4ccccc4c4ccnc(-c5cccnc5)c43)c12 [Compound 5d, 1–(3-pyridyl)-9–(6-(1-methyl-β-carboline-9-yl)hexyl)-β-carboline] | > 100 µM | > 100 µM | > 100 µM | > 100 µM | < 20 µM | < 20 µM | 141.3 to 142.9 °C |  |  |  |  | 18.9 ± 3.1 µM | 14.5 ± 0.9 µM |
| COc1ccc2c3ccnc(C)c3n(CCCCCn3c4ccccc4c4ccnc(-c5cccs5)c43)c2c1 [Compound 5x, 7-methoxy-1-methyl-9–(5-(1–(2-thienyl)-β-carboline-9-yl)pentyl)-β-carboline] | > 100 µM | > 100 µM | 41.6 ± 5.3 µM | > 100 µM | 46.7 ± 6.9 µM | 12.2 ± 3.7 µM | 196.1 to 197.4 °C |  |  |  |  |  |  |
